The subject of assay [1] is filter discs and associated CAM tissue. In words: CAM assay scored from light microscopic photographs by blinded observers. Also noted: scale not given here. Particulars: for Score: individual discs. It counts as in vivo, chicken. The method, then: However, instead of using laser confocal microscopy to determine an FVD value for a test region of interest, the filter discs and associated CAM tissue were photographed under light microscopy. The light microscopic photographs were evaluated independently by three blinded observers, all experts in the study of angiogenesis. […] If the blinded observer felt that a disc had too much hemorrhage or artifact to make an accurate assessment of angiogenesis, it was eliminated from that observer's assessment (represented by a “-” in Tables 2-4).

Assay [2] concerns chorioallantoic membrane tissue of an embryonated chicken egg. Put plainly: Modified CAM assay, fluorescent vascular density (FVD) by laser confocal microscopy after FITC-Dextran injection. Particulars: for FVD: individual eggs. It counts as in vivo. Also noted: FVD Group Mean / FVD: scale not given here. The method, then:
Eighteen 10-day-old embryonated chicken eggs were obtained. A window was made in the shell of each egg. The chorioallantoic membranes were dropped to allow placement of a filter paper disc saturated with either basic fibroblast growth factor (bFGF) (1 μg/ml), as an angiogenic stimulator, or with a control solution (Clonetics EBM-2 media, Bio-Whittaker, Walersville, Md.). Twenty-four hours were allowed to elapse and a vessel was cannulated in each egg. Embryos that had received a filter disc saturated with bFGF then received a systemic injection of either Fumagillin (5 μg/egg, Calbiochem, San Diego, Calif.) in 0.1% dimethyl sulfoxide (DMSO) (Group A, n=3), or an injection of 0.1% DMSO carrier alone (Group B, n=5). Fumagillin is an organic compound with established antiangiogenic effects (see, e.g., Ingber et al., Nature, 348:555-557 (1990)). Embryos that had received a filter disc saturated with the control molecule received 0. 1% DMSO carrier injected systemically (Group C, n=10).
Forty-eight hours were allowed to elapse, and all eggs then received a systemic injection of fluorescein isothiocyanate (FITC)-Dextran (1 mg/ml), which was allowed to circulate for 30 minutes. Filter discs and associated CAM tissue (i.e., the region of interest) were excised from the egg and preserved in 10% formalin. The filter disc and region of interest were then laid out on a glass microscope slide and viewed using a laser confocal microscope (LSM 510 Laser Scanning Microscope, Carl Zeiss, Inc., Thronwood, N.Y.). The filter disc and region of interest were stimulated with an argon laser emitting at a wavelength of 488 nm. The resultant excitation was read using fluorescence filters at wavelengths of 505 nm and greater. The image was captured using LSM 5 Pascal software (Carl Zeiss, Inc.), through a microscope objective of 1.25×. The capture image data was formatted as 1024 pixels wide by 1024 pixels long, resulting in an overall image of 1,048,576 pixels, each with a brightness measured on a scale from 0 to 255. Multiple cross-sectional images were taken along a three-dimensional z-axis at 200 micron intervals through each filter disc and region of interest from each egg. Each filter disc and region of interest was thereby determined to have a fluorescent vascular density reflective of the density of vasculature of the CAM tissue associated with the filter disc. One filter disc in Group C was eliminated from analysis owing to gross extravasation of fluorescein, rendering it unreadable (represented by “-” in Table 1).

The test system of assay [3] is endothelial cell proliferation in the CAM. In words: CAM-XTT cell proliferation assay, spectrophotometrical absorbance. The class given is in vivo, chicken. Particulars: FGF 2.0 μg/mL disc; systemic 100 μM Fumagillin or 3 mg/mL LM609; relative to FGF + 0.1% DMSO carrier. The method, then:
Ten 10-day old eggs were divided into four groups and prepared as in Example 1. The eggs received (A) filter disks saturated with a vehicle solution (0.1% bovine serum albumin (BSA)/phosphate-buffered saline (PBS)) and systemic injection of a carrier solution (0.1% DMSO), (B) filter disks saturated with a stimulator solution (2.0 μg/mL FGF) and systemic injection of carrier solution (0.1% DMSO), (C) filter disks saturated with a stimulator solution (2.0 μg/mL FGF) and systemic injection of an inhibitor (100 μM Fumagillin), or (D) filter disks saturated with a stimulator solution (2.0 μg/mL FGF) and systemic injection of an inhibitor (3 mg/mL LM609). […]
XTT is a tetrazolium salt, which is reduced within the mitochondria of metabolically active cells to form a colored formazan dye. The amount of formazan dye produced is quantitatively measured by spectrophotometrical absorbance (e.g., by an ELISA plate reader) at 450-500 nm. […]
5 mL of XTT labeling reagent and 0.1 mL electron coupling reagent were mixed together and 30 μL of the mixture was applied onto the CAM disk via pipette. […] At Day 13, the disks were harvested for light photomicroscopy and the mean spectrophotometrical absorbance at 450 nm was measured (reference wavelength 620 nm (Titertek Multiskan Ascent Plate Reader)).

Setting [4] is: Table 2, one blinded observer, Group A: bFGF disc + Fumagillin 5 μg/egg.
Where [5] appears, read: Table 3, one blinded observer, Group A: bFGF disc + Fumagillin 5 μg/egg.
Where [6] appears, read: Table 4, one blinded observer, Group A: bFGF disc + Fumagillin 5 μg/egg.
Where [7] appears, read: Table 2, one blinded observer, Group B: bFGF disc + 0.1% DMSO carrier.
Where [8] appears, read: Table 3, one blinded observer, Group B: bFGF disc + 0.1% DMSO carrier.
[9] abbreviates: Table 4, one blinded observer, Group B: bFGF disc + 0.1% DMSO carrier.

“And” between values parts separate entries of the source, which are not always exact repeats. Equal entries are not always repeated.

As to `CO[C@@H]1[C@H](OC(=O)/C=C/C=C/C=C/C=C/C(=O)O)CC[C@]2(CO2)[C@H]1[C@@]1(C)O[C@@H]1CC=C(C)C` [Fumagillin], the “Score Group Mean” value worked out at 2 in assay [1] (setting [4]), 2.7 in assay [1] (setting [5]) and 2 in assay [1] (setting [6]). Also, the Score is 2 in assay [1] (setting [4]); 2 and 3 (2×) in assay [1] (setting [5]); 3 and 2 and 1 in assay [1] (setting [6]). The FVD in assay [2] (Treatment Group A: bFGF (1 μg/ml) filter disc, systemic Fumagillin 5 μg/egg in 0.1% DMSO, 48 h) was 0.0673 and 0.0533 and 1.5029. Further, the “FVD Group Mean” value in assay [2] (Treatment Group A: bFGF (1 μg/ml) filter disc, systemic Fumagillin 5 μg/egg in 0.1% DMSO, n=3) was determined as 0.5412. Besides, the “effect on fluorescent vascular density of bFGF-stimulated specimens” value in assay [2] (systemic injection, on average, relative to bFGF stimulation + control molecule (Group B)) is on record as “reduce the fluorescent vascular density”. Further, the “effect on spectrophotometrical absorbance (450 nm) of FGF-stimulated specimens” value in assay [3] was “reduced the spectrophotometrical absorbance”.
basic fibroblast growth factor [bFGF]: the “Score Group Mean” value in assay [1] (setting [7]) is reported as 1.8; in assay [1] (setting [8]), 2.4; in assay [1] (setting [9]), 2.2. In addition, the Score in assay [1] (setting [7]) is 2 (2×) and 3 and 1 (2×); in assay [1] (setting [8]) it was 2 and 3 (3×) and 1; in assay [1] (setting [9]) it was 2 (2×) and 3 (2×) and 1. Besides, in assay [2] (Treatment Group B: bFGF (1 μg/ml) filter disc, systemic 0.1% DMSO carrier alone), the FVD was 2.5401 and 3.7715 and 1.9767 and 0.6873 and 2.6344. For the same compound, the “FVD Group Mean” value in assay [2] (Treatment Group B: bFGF (1 μg/ml) filter disc, systemic 0.1% DMSO carrier alone, n=5) is given as 2.322.

The values are drawn from patent US20050136006A1, “Quantitative assay of the angiogenic and antiangiogenic activity of a test molecule” (Government of the U.S.A.,represented by the Secretary, …, priority 2002, published 2005).
